Measured values reported in BigSolDB 2.1.

O=C(Nc1ccc(Cl)cc1)Nc1ccc(Cl)c(Cl)c1
solubility (mole fraction)
Conditions | 288.15 K | 293.15 K | 298.15 K | 303.15 K | 308.15 K | 313.15 K | 318.15 K
in 1,4-dioxane | 0.00103 | 0.00176 | 0.00239 | 0.00403 | 0.00658 | 0.00931 | 0.0141
in cyclohexane | 1.68e-07 | 2.73e-07 | 4.23e-07 | 7.31e-07 | 1.17e-06 | 1.82e-06 | 2.72e-06
